{"source": "patent US11998536B2", "about": "“Decreasing expression level of proteasome subunit genes by treating a human subject with a nitroxide” (priority 2018, dated 2024)", "key": {"[1]": {"tested_on": "genes associated with proteasome activity", "experiment": "Gene expression in Tempol-fed mice, chip-based microarray (summary in text)", "type": "in vivo", "conditions": "Tempol 5 mg/g of food from 14 to 31 months; cardiac tissue; vs mice on same food without Tempol", "description": "(§1) To assess the effects of Tempol on gene expression, Tempol was administered to experimental mice at a dose of 5 mg/g of food from 14 months to 31 months after birth. Mice receiving the same food without the addition of Tempol were used as a negative control. At the age of 31 months, the experimental animals were sacrificed and the hearts were surgically removed. The expression of a broad spectrum of genes in the cardiac tissue was assessed using chip-based microarray technology. Such chips are well known in the art and are widely used to assess gene expression."}, "Psmc4": {"tested_on": "Psmc4", "experiment": "Gene expression in Tempol-fed mice, chip-based microarray", "type": "in vivo", "conditions": "white adipose tissue per table title (cardiac tissue per text)", "description": "as §1"}, "Psme4": {"tested_on": "Psme4", "experiment": "Gene expression in Tempol-fed mice, chip-based microarray", "type": "in vivo", "conditions": "white adipose tissue per table title (cardiac tissue per text)", "description": "as §1"}, "Psma6": {"tested_on": "Psma6", "experiment": "Gene expression in Tempol-fed mice, chip-based microarray", "type": "in vivo", "conditions": "white adipose tissue per table title (cardiac tissue per text)", "description": "as §1"}, "Psmb4": {"tested_on": "Psmb4", "experiment": "Gene expression in Tempol-fed mice, chip-based microarray", "type": "in vivo", "conditions": "white adipose tissue per table title (cardiac tissue per text)", "description": "as §1"}, "Psma7": {"tested_on": "Psma7", "experiment": "Gene expression in Tempol-fed mice, chip-based microarray", "type": "in vivo", "conditions": "white adipose tissue per table title (cardiac tissue per text)", "description": "as §1"}, "Psma2": {"tested_on": "Psma2", "experiment": "Gene expression in Tempol-fed mice, chip-based microarray", "type": "in vivo", "conditions": "white adipose tissue per table title (cardiac tissue per text)", "description": "as §1"}, "Psmd3": {"tested_on": "Psmd3", "experiment": "Gene expression in Tempol-fed mice, chip-based microarray", "type": "in vivo", "conditions": "white adipose tissue per table title (cardiac tissue per text)", "description": "as §1"}, "Psmd12": {"tested_on": "Psmd12", "experiment": "Gene expression in Tempol-fed mice, chip-based microarray", "type": "in vivo", "conditions": "white adipose tissue per table title (cardiac tissue per text)", "description": "as §1"}, "Psmc6": {"tested_on": "Psmc6", "experiment": "Gene expression in Tempol-fed mice, chip-based microarray", "type": "in vivo", "conditions": "white adipose tissue per table title (cardiac tissue per text)", "description": "as §1"}, "Psmd14": {"tested_on": "Psmd14", "experiment": "Gene expression in Tempol-fed mice, chip-based microarray", "type": "in vivo", "conditions": "white adipose tissue per table title (cardiac tissue per text)", "description": "as §1"}, "Psmd4": {"tested_on": "Psmd4", "experiment": "Gene expression in Tempol-fed mice, chip-based microarray", "type": "in vivo", "conditions": "white adipose tissue per table title (cardiac tissue per text)", "description": "as §1"}, "Psmd9": {"tested_on": "Psmd9", "experiment": "Gene expression in Tempol-fed mice, chip-based microarray", "type": "in vivo", "conditions": "white adipose tissue per table title (cardiac tissue per text)", "description": "as §1"}, "Psmc3": {"tested_on": "Psmc3", "experiment": "Gene expression in Tempol-fed mice, chip-based microarray", "type": "in vivo", "conditions": "white adipose tissue per table title (cardiac tissue per text)", "description": "as §1"}, "Psmd13": {"tested_on": "Psmd13", "experiment": "Gene expression in Tempol-fed mice, chip-based microarray", "type": "in vivo", "conditions": "white adipose tissue per table title (cardiac tissue per text)", "description": "as §1"}, "Psmb5": {"tested_on": "Psmb5", "experiment": "Gene expression in Tempol-fed mice, chip-based microarray", "type": "in vivo", "conditions": "white adipose tissue per table title (cardiac tissue per text)", "description": "as §1"}, "Psmc2": {"tested_on": "Psmc2", "experiment": "Gene expression in Tempol-fed mice, chip-based microarray", "type": "in vivo", "conditions": "white adipose tissue per table title (cardiac tissue per text)", "description": "as §1"}, "[2]": {"target": "β2 sites of the proteasome (Homo sapiens, UniProt Q99436)", "conditions": "under normal conditions; cited from earlier work"}, "[3]": {"tested_on": "β5/β5i sites (chymotrypsin-like sites) of the proteasome", "conditions": "cited from earlier work"}, "[4]": {"target": "β1 (caspase-like) sites of the proteasome (Homo sapiens, UniProt P28072)", "conditions": "relative to β5/β5i sites; cited from earlier work"}, "[5]": {"conditions": "Tempol 5 mg/g of food from 14 to 31 months, microarray"}, "[6]": {"conditions": "Tempol-treated vs control mice, 5 mg/g of food from 14 to 31 months"}}}
{"compound": "CC1(C)CC(O)CC(C)(C)N1[O]", "note": "[Tempol, 4-hydroxy-2,2,6,6-tetramethylpiperidine-1-oxyl]", "values": [{"measurement": "Change in expression of the 16 listed proteasome genes", "setting": "[1]", "value": "statistically significant decrease in expression"}, {"measurement": "Psmc4 expression, Tempol-treated mice", "setting": "Psmc4; [5]", "value": 1101}, {"measurement": "Psmc4 fold change", "setting": "Psmc4; [6]", "value": "−1.52"}, {"measurement": "Psme4 expression, Tempol-treated mice", "setting": "Psme4; [5]", "value": 1086}, {"measurement": "Psme4 fold change", "setting": "Psme4; [6]", "value": "−1.16"}, {"measurement": "Psma6 expression, Tempol-treated mice", "setting": "Psma6; [5]", "value": 3467}, {"measurement": "Psma6 fold change", "setting": "Psma6; [6]", "value": "−1.09"}, {"measurement": "Psmb4 expression, Tempol-treated mice", "setting": "Psmb4; [5]", "value": 3614}, {"measurement": "Psmb4 fold change", "setting": "Psmb4; [6]", "value": "−1.15"}, {"measurement": "Psma7 expression, Tempol-treated mice", "setting": "Psma7; [5]", "value": 1513}, {"measurement": "Psma7 fold change", "setting": "Psma7; [6]", "value": "−1.23"}, {"measurement": "Psma2 expression, Tempol-treated mice", "setting": "Psma2; [5]", "value": 3123}, {"measurement": "Psma2 fold change", "setting": "Psma2; [6]", "value": "−1.20"}, {"measurement": "Psmd3 expression, Tempol-treated mice", "setting": "Psmd3; [5]", "value": 1017}, {"measurement": "Psmd3 fold change", "setting": "Psmd3; [6]", "value": "−1.12"}, {"measurement": "Psmd12 expression, Tempol-treated mice", "setting": "Psmd12; [5]", "value": 1098}, {"measurement": "Psmd12 fold change", "setting": "Psmd12; [6]", "value": "−1.20"}, {"measurement": "Psmc6 expression, Tempol-treated mice", "setting": "Psmc6; [5]", "value": 1449}, {"measurement": "Psmc6 fold change", "setting": "Psmc6; [6]", "value": "−1.16"}, {"measurement": "Psmd14 expression, Tempol-treated mice", "setting": "Psmd14; [5]", "value": 2745}, {"measurement": "Psmd14 fold change", "setting": "Psmd14; [6]", "value": "−1.20"}, {"measurement": "Psmd4 expression, Tempol-treated mice", "setting": "Psmd4; [5]", "value": 2610}, {"measurement": "Psmd4 fold change", "setting": "Psmd4; [6]", "value": "−1.20"}, {"measurement": "Psmd9 expression, Tempol-treated mice", "setting": "Psmd9; [5]", "value": 310}, {"measurement": "Psmd9 fold change", "setting": "Psmd9; [6]", "value": "−1.18"}, {"measurement": "Psmc3 expression, Tempol-treated mice", "setting": "Psmc3; [5]", "value": 1810}, {"measurement": "Psmc3 fold change", "setting": "Psmc3; [6]", "value": "−1.23"}, {"measurement": "Psmd13 expression, Tempol-treated mice", "setting": "Psmd13; [5]", "value": 1047}, {"measurement": "Psmd13 fold change", "setting": "Psmd13; [6]", "value": "−1.23"}, {"measurement": "Psmb5 expression, Tempol-treated mice", "setting": "Psmb5; [5]", "value": 1754}, {"measurement": "Psmb5 fold change", "setting": "Psmb5; [6]", "value": "−1.15"}, {"measurement": "Psmc2 expression, Tempol-treated mice", "setting": "Psmc2; [5]", "value": 2176}, {"measurement": "Psmc2 fold change", "setting": "Psmc2; [6]", "value": "−1.23"}]}
{"compound": "CC(C)C[C@H](NC(=O)[C@H](Cc1ccccc1)NC(=O)c1cnccn1)B(O)O", "note": "[bortezomib]", "values": [{"measurement": "Targeting of β2 sites", "setting": "[2]", "value": "not appreciably targeted"}, {"measurement": "Inhibition of β5/β5i sites", "setting": "[3]", "value": "high potency"}, {"measurement": "Affinity for β1 sites, lower than for β5/β5i sites", "setting": "[4]", "value": "approximately 10 fold"}]}
